This experiment concerns the target T1, rVDAC1-GFP2 / rVDAC1-Rluc in T-REx-293 cells (Rattus norvegicus, UniProt Q9Z2L0).
T1 construct: The rVDAC1 gene was cloned into BamHI and HindIII sites of the BRET2 plasmids (N2 variants); expressed in transfected cells; host or cells: T-REx-293 cells stably expressing hVDAC1-shRNA (T-REx-pS10)
Put plainly: BRET2 assay of VDAC1 oligomerization induced by apoptosis inducers (Method A). The format is cell-based. To be noted: test compound 10 μM, 1 h pre-incubation; for BRET2, % of inhibition, As2O3: As2O3 60 μM (3 h); for BRET2, % of inhibition, STS: STS 1 μM (3 h); for BRET2, % of inhibition, Selenite: selenite 30 μM (3 h). The source says:
BRET2 screening may be carried out as described in the art ([…] et al., (2010) Oligomerization of the mitochondrial protein voltage-dependent anion channel is coupled to the induction of apoptosis. Mol Cell Biol 30, 5698-5709). Plasmids encoding the fusion proteins rat(r)VDAC1-GFP2 and rVDAC1-luc were constructed using the BRET2 plasmids (Perkin Elmer, Waltham, Mass.). The rVDAC1 gene was cloned into BamHI and HindIII sites of the BRET2 plasmids (N2 variants) and amplified using the forward primer [NT] and the reverse primer [NT]. […] The cells were transfected using calcium phosphate method. Transfections were carried out with 0.2 μg of a plasmid coding for rVDAC1-Rluc and with 0.8 μg of a plasmid coding for rVDAC1-GFP2. As a negative control, cells were transfected with plasmids encoding for rVDAC1-Rluc (0.2 μg DNA) and GFP2 (0.8 μg). In another control (control cells), cells were also transfected with a plasmid encoding for rVDAC1-luc (0.2 μg) and plasmid pcDNA4/TO (0.8 μg). The BRET2 signal represents the ratio of the GFP2 fluorescence, measured at its emission wavelength (510 nm), over the light intensity (luminescence) emitted at 395 nm. All measurements were performed using the Infinite 200 ELISA reader (Tecan). BRET2 signals were defined as GFP2/Rluc intensity ratio and calculated as follows: DNA encoding fusion proteins rVDAC1-Rluc (in which RLuc was connected to rVDAC1 at the C terminal position through a linker (GGGS)) and rVDAC1-GFP2 (in which the GFP2 was fused to the rVDAC1 C terminus) was cloned into BRET2 vectors. rVDAC1-GFP2 and rVDAC1-Rluc were expressed in T-REx-293 cells stably expressing shRNA-hVDAC1 and a low level of endogenous hVDAC1 (referred to as T-REx-pS10 cells) hVDAC1-shRNA, being specific to human VDAC1, allowed the expression of rVDAC1 and decreased the participation of endogenous hVDAC1 in oligomerization, thereby enhancing the BRET2 signal. rVDAC1-GFP2 and rVDAC1-Rluc expression levels were correlated with the amount of plasmids used. […] Following incubation, cells were harvested using trypsin, washed twice with PBS by centrifugation at 1000×g, 5 min, resuspended in 200 μl of PBS and divided between two wells of a 96-well clear-bottom plate (Grenier). […] The screening was conducted using BRET2 assay as described above. […] After treatment, the medium was removed and assayed for BRET2 signals as described above. Liquid handling was done with the Tecan (Männedorf, Switzerland) Freedom 150 Robotic & MCA Liquid Handling System, while luciferase luminescence and fluorescence readings were obtained a robot-integrated Tecan Infinite M1000 reader. Method A was used for screening of VDAC1 oligomerization inhibitors. […] Table 2 provides a summary of BRET2-based screen results of the anti-VDAC1 oligomerization activity of compounds from the NCI library. Results are presented as percent inhibition of the BRET2 signal induced by the indicated pro-apoptotic agent.

T1 sequence (Q9Z2L0 with tags, fused parts or gaps limits assumed): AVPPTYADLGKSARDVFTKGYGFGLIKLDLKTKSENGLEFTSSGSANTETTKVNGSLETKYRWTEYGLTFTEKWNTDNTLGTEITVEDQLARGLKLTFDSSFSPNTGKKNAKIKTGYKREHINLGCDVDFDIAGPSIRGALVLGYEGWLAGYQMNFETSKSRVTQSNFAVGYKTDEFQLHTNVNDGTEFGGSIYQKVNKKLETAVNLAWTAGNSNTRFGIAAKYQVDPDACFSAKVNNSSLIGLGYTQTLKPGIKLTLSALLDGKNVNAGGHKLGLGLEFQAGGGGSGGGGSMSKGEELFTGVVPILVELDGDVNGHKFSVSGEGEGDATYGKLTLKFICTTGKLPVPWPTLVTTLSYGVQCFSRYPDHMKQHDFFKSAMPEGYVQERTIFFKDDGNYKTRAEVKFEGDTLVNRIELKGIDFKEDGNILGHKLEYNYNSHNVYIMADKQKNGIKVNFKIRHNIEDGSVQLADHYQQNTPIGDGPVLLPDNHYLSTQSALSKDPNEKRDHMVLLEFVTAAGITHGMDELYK

Consider `O=C(Nc1ccc(Nc2ccncc2)cc1)c1ccc(Nc2ccnc3ccc([N+](=O)[O-])cc23)cc1` [NSC 146771], for which the “BRET2, % of inhibition, As2O3” value worked out at 70.7%; the “BRET2, % of inhibition, STS” value came to 41.2%; the “BRET2, % of inhibition, Selenite” value is 68.1%.
The matching figures for `O=C(O)c1cc2ccccc2c2cc(Br)ccc12` [NSC 151252]: 100%, 0% and 29.8%.
The like results for `Clc1ccc(/C=C/c2nc(Cl)c(-c3ccc(Cl)cc3)c(Cl)n2)cc1` [NSC 154389] were, in that order, 90.6%, 45.9% and 90.6%.
The matching figures for `Nc1ccc(C(=O)Oc2ccc([N+](=O)[O-])cc2)cc1` [NSC 163802]: 65.8%, 0% and 1.2%.
Consider `CCCCC(=O)N1CCCC(C)C1` (stereo not drawn) [NSC 191029], for which the “BRET2, % of inhibition, As2O3” value was found to be 86.5%; the “BRET2, % of inhibition, STS” value is 0%; the “BRET2, % of inhibition, Selenite” value was found to be 36.4%.
The matching figures for `O=C(Nc1cccc([N+](=O)[O-])c1)c1cccc(C(=O)Nc2cccc([N+](=O)[O-])c2)c1` [NSC 204232]: 90.3%, 0% and 32.5%.
The matching figures for `O=C(/C=C/c1ccccc1)NC(=S)Nc1ncccn1` [NSC 205968]: 58.5%, 0% and 0%.
Regarding `CCOc1ccc(/C=C2\CCc3ccccc3C2=O)cc1` [NSC 252172], the “BRET2, % of inhibition, As2O3” value is 83.1%; the “BRET2, % of inhibition, STS” value was determined as 44.1%; the “BRET2, % of inhibition, Selenite” value was 50%.
As to `O=C(Oc1ccc(NC(=O)c2cc3c(cc2Br)OCO3)cc1)c1ccccc1` [NSC 268487], the “BRET2, % of inhibition, As2O3” value is reported as 86.7%; the “BRET2, % of inhibition, STS” value worked out at 0%; the “BRET2, % of inhibition, Selenite” value is listed as 69.4%.
The like results for `Nc1cc2c3c(cccc3c1)C(=O)N(CCN1CCCC1)C2=O` [NSC 308849] were, in that order, 99.5%, 0% and 0%.
As to `CCN(CC)Cc1cc2[nH]c3c4ccc(Cl)cc4ncc3c2cc1OC` [NSC 317605], the “BRET2, % of inhibition, As2O3” value came out at 46%; the “BRET2, % of inhibition, STS” value turned out to be 0.3%; the “BRET2, % of inhibition, Selenite” value is recorded as 52%.
The like results for `Cc1ccc(NC(=O)Nc2nc3ccccc3s2)cc1NC(=O)Nc1nc2ccccc2s1` [NSC 319990] were, in that order, 96.2%, 22% and 43.2%.
The matching figures for `Clc1ccc(-c2nc(-c3cc4cc(Cl)ccc4o3)cs2)cc1` [NSC 321502]: 67.3%, 22.4% and 46.5%.
The matching figures for `O=C(c1cccnc1)c1cc(-c2ccccn2)c(=O)n2ccccc12` [NSC 324623]: 78%, 0% and 16.3%.
On to `O=C(Nc1ccc(Cl)c([N+](=O)[O-])c1)Nc1nc2ccccc2s1` [NSC 329249], for which the “BRET2, % of inhibition, As2O3” value was found to be 82.8%; the “BRET2, % of inhibition, STS” value worked out at 12.1%; the “BRET2, % of inhibition, Selenite” value came out at 22.4%.
The like results for `Nc1nc(Nc2ccccc2)n[nH]1` [NSC 331208] were, in that order, 86.4%, 0% and 28.3%.
The like results for `O=C(Nc1ccccc1-c1ccccc1)C(=O)Nc1ccccc1-c1ccccc1` [NSC 338042] were, in that order, 44.7%, 0% and 80.2%.
The like results for `COC(=O)C1(C)Cc2cc(OC(C)=O)c(OC(C)=O)cc2N1` (stereo not drawn) [NSC 341956] were, in that order, 51.5%, 0% and 24%.
Consider `CCOc1cccc(/C=C2\NC(=S)N(c3ccccc3)C2=O)c1O` [NSC 343966], for which the “BRET2, % of inhibition, As2O3” value stood at 39.4%; the “BRET2, % of inhibition, STS” value came to 0%; the “BRET2, % of inhibition, Selenite” value is recorded as 20.1%.
The matching figures for `COc1ccc(C2OC3=C(Nc4cc(C)c(C)cc4N3)C2=O)cc1` (stereo not drawn) [NSC 372275]: 72.5%, 28.5% and 46.5%.
The like results for `O=[N+]([O-])c1ccc(-c2ncc(-c3ccc(Br)cc3)o2)cc1` [NSC 372767] were, in that order, 77.3%, 0% and 26.6%.
Regarding `C=CCNC(=O)c1ccc(OC)cc1` [NSC 404057], the “BRET2, % of inhibition, As2O3” value was determined as 74.6%; the “BRET2, % of inhibition, STS” value is on record as 0%; the “BRET2, % of inhibition, Selenite” value is recorded as 37.1%.
For `O=C(Nc1ccc(Cl)c(Cl)c1)Nc1ccccc1O` [NSC 522131], the “BRET2, % of inhibition, As2O3” value was found to be 86.8%; the “BRET2, % of inhibition, STS” value is 0%; the “BRET2, % of inhibition, Selenite” value is listed as 47.6%.
The matching figures for `O=C(Nc1ccc(Br)c2ccccc12)c1ccc2ccccc2c1O` [NSC 601359]: 97.7%, 46% and 74.4%.
Take `c1ccc2c(c1)[nH]c1c3ccccc3sc21` [NSC 605333]: the “BRET2, % of inhibition, As2O3” value is on record as 63.7%; the “BRET2, % of inhibition, STS” value is reported as 0%; the “BRET2, % of inhibition, Selenite” value stood at 16%.
The like results for `CC(=O)N1C=Cc2c(c(C)c3c([nH]c4ccccc43)c2C)C1` [NSC 657149] were, in that order, 88.3%, 0% and 25.3%.
On to `CN(C)c1cccc(/C=C(\C#N)c2ccccc2)c1` [NSC 667251], for which the “BRET2, % of inhibition, As2O3” value worked out at 77.5%; the “BRET2, % of inhibition, STS” value is 1.4%; the “BRET2, % of inhibition, Selenite” value is recorded as 0%.
The like results for `COC(=NC(C)C)NC(C)C` [NSC 672441] were, in that order, 69.6%, 0% and 41.8%.
Take `CN(C)c1ccc(N=Nc2cccc3ccoc23)cc1` [NSC 680515]: the “BRET2, % of inhibition, As2O3” value worked out at 87.8%; the “BRET2, % of inhibition, STS” value is reported as 33.4%; the “BRET2, % of inhibition, Selenite” value came to 66.3%.

For the origin of these results see patent US10787423B2, “Piperazine and piperidine derivatives, their synthesis and use thereof in inhibiting VDAC oligomerization, apoptosis and mitochondria dysfunction” (THE NATIONAL INSTITUTE FOR BIOTECHNOLOGY IN THE NEGEV LTD., priority 2015, dated 2020).
